Experimental data from ChEMBL document CHEMBL3763138, “Synthesis and bioactivity of novel triazole incorporated benzothiazinone derivatives as antitubercular and antioxidant agent” (Bioorg Med Chem Lett, 2016).
≈ marks a conversion by molar mass, not a printed value.

Experiments:
[1] = system: Mycobacterium tuberculosis; assay: Antitubercular activity against Mycobacterium tuberculosis H37Ra ATCC 25177 at 30 ug/ml by XTT Reduction Menadione Assay; format: functional
[2] = system: Mycobacterium tuberculosis; assay: Antitubercular activity against Mycobacterium tuberculosis H37Ra ATCC 25177 at 10 ug/ml by XTT Reduction Menadione Assay; format: functional
[3] = system: Mycobacterium tuberculosis; assay: Antitubercular activity against Mycobacterium tuberculosis H37Ra ATCC 25177 at 3 ug/ml by XTT Reduction Menadione Assay; format: functional
[4] = Antioxidant activity assessed as DPPH radical scavenging activity by spectrophotometric assay; format: physicochemical
[5] = system: Mycobacterium tuberculosis; assay: Antitubercular activity against Mycobacterium tuberculosis H37Ra ATCC 25177 by XTT Reduction Menadione Assay; format: functional, organism-based
[6] = system: A549; assay: Antiproliferative activity against human A549 cells at 30 ug/ml after 48 hrs by MTT assay; format: cell-based; conditions: a549, 48 h
[7] = system: A549; assay: Antiproliferative activity against human A549 cells at 10 ug/ml after 48 hrs by MTT assay; format: cell-based; conditions: a549, 48 h
[8] = system: A549; assay: Antiproliferative activity against human A549 cells at 3 ug/ml after 48 hrs by MTT assay; format: cell-based; conditions: a549, 48 h
[9] = system: A-431; assay: Antiproliferative activity against human A431 cells at 30 ug/ml after 48 hrs by MTT assay; format: cell-based; conditions: a-431, 48 h
[10] = system: A-431; assay: Antiproliferative activity against human A431 cells at 10 ug/ml after 48 hrs by MTT assay; format: cell-based; conditions: a-431, 48 h
[11] = system: A-431; assay: Antiproliferative activity against human A431 cells at 3 ug/ml after 48 hrs by MTT assay; format: cell-based; conditions: a-431, 48 h
[12] = system: HeLa; assay: Antiproliferative activity against human HeLa cells at 30 ug/ml after 72 hrs by MTT assay; format: cell-based
[13] = system: HeLa; assay: Antiproliferative activity against human HeLa cells at 10 ug/ml after 72 hrs by MTT assay; format: cell-based
[14] = system: HeLa; assay: Antiproliferative activity against human HeLa cells at 3 ug/ml after 72 hrs by MTT assay; format: cell-based
[15] = (§1) Cytotoxicity against human A549 cells assessed as growth inhibition after 48 hrs by MTT assay; format: cell-based; conditions: A549 cells
[16] = system: A549; assay: as §1; format: cell-based; conditions: a549, 48 h
[17] = (§2) Cytotoxicity against human HeLa cells assessed as growth inhibition after 72 hrs by MTT assay; format: cell-based; conditions: HeLa cells
[18] = system: HeLa; assay: as §2; format: cell-based; conditions: hela, 72 h
[19] = Cytotoxicity against human A431 cells assessed as growth inhibition after 48 hrs by MTT assay; format: cell-based, A-431
[20] = Selectivity index, ratio of GI50 for human HeLa cells to MIC for Mycobacterium tuberculosis H37Ra ATCC 25177; format: toxicity, cell-based; conditions: pooled result: one value given for 3 cell lines, strains, targets or settings, read-out: Selectivity Index
[21] = Selectivity index, ratio of GI50 for human HeLa cells to MIC for Mycobacterium bovis BCG ATCC 35743; format: toxicity, cell-based; conditions: pooled result: one value given for 3 cell lines, strains, targets or settings, read-out: Selectivity Index

Q: Which results are given for `O=C1CSc2ccccc2N1Cc1cn(Cc2ccccc2)nn1`?
A: inhibition at 30 µg/mL [1]: 82.2%; inhibition at 10 µg/mL [2]: 59.3%; inhibition at 3 µg/mL [3]: -15.4%; IC50 [4]: 36.26 µg/mL (≈ 108 µM); IC50 [5]: 9.11 µg/mL (≈ 27.1 µM); MIC [5]: > 30 µg/mL; Activity [6]: 25.91%; Activity [7]: -9.82%; Activity [8]: -7.85%; Activity [9]: -10.8%; Activity [10]: -37.2%; Activity [11]: 0%; Activity [12]: 39.6%; Activity [13]: 8.8%; Activity [14]: 0%; GI50 at 48 h [15]: > 30 µg/mL; MIC [16]: > 30 µg/mL; GI50 at 72 h [17]: > 30 µg/mL; GI50 [18]: > 30 µg/mL; GI50 at 48 h [19]: > 30 µg/mL

Q: For `O=C1CSc2ccccc2N1Cc1cn(Cc2cccc(Cl)c2)nn1`, which inhibition at 30 µg/mL [1] is on record?
A: 94.2%

Q: What about the inhibition at 10 µg/mL [2] of the same compound?
A: 66.6%

Q: What about the inhibition at 3 µg/mL [3] of the same compound?
A: 8.6%

Q: And the IC50 [4]?
A: 45.63 µg/mL (≈ 123 µM)

Q: What about the IC50 [5] of the same compound?
A: 8.03 µg/mL (≈ 21.7 µM)

Q: What about the MIC [5] of the same compound?
A: 27.3 µg/mL (≈ 73.7 µM)

Q: What about the Activity [6] of the same compound?
A: 19.04%

Q: What about the Activity [7] of the same compound?
A: 3.31%

Q: And the Activity [8]?
A: 6.38%

Q: And the Activity [9]?
A: 4.4%

Q: And the Activity [10]?
A: -13.7%

Q: What about the Activity [11] of the same compound?
A: -6.3%

Q: And the Activity [12]?
A: 45.7%

Q: What about the Activity [13] of the same compound?
A: 43.4%

Q: And the Activity [14]?
A: 52.3%

Q: And the GI50 at 48 h [15]?
A: > 30 µg/mL

Q: And the MIC [16]?
A: > 30 µg/mL

Q: And the GI50 at 72 h [17]?
A: > 30 µg/mL

Q: And the GI50 [18]?
A: > 30 µg/mL

Q: And the GI50 at 48 h [19]?
A: > 30 µg/mL

Q: What about the selectivity ratio [20] of the same compound?
A: 1.1

Q: What about the selectivity ratio [21] of the same compound?
A: 1.05

Q: With `O=C1CSc2ccccc2N1Cc1cn(Cc2ccccc2Cl)nn1` as the compound, how does the inhibition at 30 µg/mL [1] read?
A: 37.8%

Q: And the inhibition at 10 µg/mL [2]?
A: 74.9%

Q: And the inhibition at 3 µg/mL [3]?
A: 41.9%

Q: And the IC50 [4]?
A: 16.35 µg/mL (≈ 44.1 µM)

Q: And the IC50 [5]?
A: > 30 µg/mL

Q: What about the MIC [5] of the same compound?
A: > 30 µg/mL

Q: And the Activity [6]?
A: 23.34%

Q: And the Activity [7]?
A: -8.41%

Q: What about the Activity [8] of the same compound?
A: 4.19%

Q: And the Activity [9]?
A: 31.4%

Q: And the Activity [10]?
A: 29.6%

Q: And the Activity [11]?
A: 15.4%

Q: What about the Activity [12] of the same compound?
A: 55.9%

Q: What about the Activity [13] of the same compound?
A: 38.6%

Q: And the Activity [14]?
A: 48.1%

Q: What about the GI50 at 48 h [15] of the same compound?
A: > 30 µg/mL

Q: What about the MIC [16] of the same compound?
A: > 30 µg/mL

Q: And the GI50 at 72 h [17]?
A: > 30 µg/mL

Q: And the GI50 [18]?
A: > 30 µg/mL

Q: And the GI50 at 48 h [19]?
A: > 30 µg/mL

Q: Which IC50 [4] does the source give for `Cc1cc(C(C)(C)C)c(O)c(C(C)(C)C)c1` [BUTYLATED HYDROXYTOLUENE] here?
A: 16.47 µg/mL (≈ 74.7 µM)

Q: What does the source list for `NNC(=O)c1ccncc1` [ISONIAZID]?
A: IC50 [5]: 0.0025 µg/mL (≈ 0.0182 µM); MIC [5]: 0.075 µg/mL (≈ 0.547 µM); selectivity ratio [20]: 1330; selectivity ratio [21]: 2220

Q: With `CC(=O)O[C@H]1C(=O)[C@@]2(C)[C@H]([C@H](OC(=O)c3ccccc3)[C@]3(O)C[C@H](OC(=O)[C@H](O)[C@@H](NC(=O)c4ccccc4)c4ccccc4)C(C)=C1C3(C)C)[C@]1(OC(C)=O)CO[C@@H]1C[C@@H]2O` [PACLITAXEL] as the compound, how does the GI50 at 48 h [15] read?
A: < 0.0023 µg/mL

Q: What about the MIC [16] of the same compound?
A: 0.039 µg/mL (≈ 0.0457 µM)

Q: What about the GI50 at 72 h [17] of the same compound?
A: 0.14 µg/mL (≈ 0.164 µM)

Q: And the GI50 at 48 h [19]?
A: 0.0023 µg/mL (≈ 0.00269 µM)

Q: With `CO[C@H]1/C=C/O[C@@]2(C)Oc3c(C)c(O)c4c(O)c(c(/C=N/N5CCN(C)CC5)c(O)c4c3C2=O)NC(=O)/C(C)=C\C=C\[C@H](C)[C@H](O)[C@@H](C)[C@@H](O)[C@@H](C)[C@H](OC(C)=O)[C@@H]1C` [RIFAMPIN] as the compound, how does the MIC [5] read?
A: 0.043 µg/mL (≈ 0.0523 µM)

Q: And the selectivity ratio [20]?
A: 2330

Q: And the selectivity ratio [21]?
A: 2440
